Source: paper PMC12742849 (Protein & Cell, 2025)

Molecular target: RibD-enolase complex (RibD activity) (Francisella tularensis, UniProt A0Q460)
Details: substrate generated in situ from GTP by E. coli RibA; with and without PEP

SMILES: Nc1nc(N[C@@H]2O[C@H](COP(=O)(O)O)[C@@H](O)[C@H]2O)c(N)c(=O)[nH]1 [2,5-diamino-6-ribosyl-amino-4(3H) pyrimidinedione 5′-phosphate]
- fluorescence of the RibD reaction product (ex 408 nm, em 485 nm): Results showed similar activity for both, with PEP having the same effect on each
